Results taken from patent US20060178357A1, “Chphalosporin-derived mercaptans as inhibitors of serine and metallo-beta-lactamases” (priority 2005, published 2006).

Legend:
[1] = test system: class B β-lactamases (L1 metallo-β-lactamase derived from Stenotrophomonas maltophilia; metallo-β-lactamase derived from Bacillus cereus); experiment: β-lactamase inhibition (IC50, nitrocefin hydrolysis) against class B metallo-β-lactamases; format: biochemical; conditions: 4 min incubation of inhibitor and enzyme, substrate nitrocefin, 480 nm; statement in words summarising Table 1
Experimental: (§1) Representative compounds of the invention were evaluated as inhibitors of two serine β-lactamases: Enterobacter cloacae P99 (class C), TEM-1 (class A), as well as two class B enzymes: the L1 metallo-β-lactamse derived from Stenotrophomonas maltophilia) and the metallo-β-lactamase derived from the Bacillus cereus microorganism. The IC50 value of each compound was determined as follows. Assay method involves 4 min incubation of a solution of inhibitor and enzyme (0.1 to 1 μM in enzyme), followed by transfer of an aliquot into a dilute solution of the substrate nitrocefin. Hydrolysis is monitored spectrophotometrically at 480 nm for 1 min. The rate is constant throughout this period. Error is ±10%, based on multiple experiments.

[2] = target: Enterobacter cloacae P99 (class C) β-lactamase (Enterobacter cloacae, UniProt P05364); experiment: β-lactamase inhibition (IC50, nitrocefin hydrolysis) against class C serine β-lactamase; format: biochemical; conditions: 4 min incubation of inhibitor and enzyme, substrate nitrocefin, 480 nm; comparison in words summarising Table 1
Experimental: as §1

Sequence of Enterobacter cloacae P99 (class C) β-lactamase (P05364 21-381): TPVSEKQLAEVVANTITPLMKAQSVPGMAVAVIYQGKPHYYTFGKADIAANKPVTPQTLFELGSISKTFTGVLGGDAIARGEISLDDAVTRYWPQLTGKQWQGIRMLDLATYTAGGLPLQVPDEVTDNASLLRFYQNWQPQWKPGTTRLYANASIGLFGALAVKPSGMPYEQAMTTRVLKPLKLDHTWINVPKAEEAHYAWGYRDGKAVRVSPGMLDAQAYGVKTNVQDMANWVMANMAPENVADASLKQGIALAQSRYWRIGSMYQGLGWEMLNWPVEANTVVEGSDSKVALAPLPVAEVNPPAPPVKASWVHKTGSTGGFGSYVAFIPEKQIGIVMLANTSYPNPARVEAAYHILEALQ

Compound | ability to inhibit the class B β-lactamases [1] | inhibition activity against a representative class C β-lactamase relative to tazobactam [2]
CC(=O)OCC1=C(C(=O)[O-])N2C(=O)C(CS)C2[S+]([O-])C1.[Na+] (stereo not drawn) [Compound 29, Sodium salt of 7α-(mercaptomethyl)cephalosporanate-1α-oxide] | possess the ability to inhibit the class B β-lactamases | superior to tazobactam
CC(=O)OCC1=C(C(=O)[O-])N2C(=O)C(CS)C2SC1.[Na+] (stereo not drawn) [Compound 26, Sodium salt of 7α-(mercaptomethyl)cephalosporanate] | possess the ability to inhibit the class B β-lactamases | superior to tazobactam
CC(=O)OCC1=C(C(=O)[O-])N2C(=O)C(CS)C2S(=O)(=O)C1.[Na+] (stereo not drawn) [Compound 15, Sodium salt of 7β-(mercaptomethyl)cephalosporanate-1,1-dioxide] | possess the ability to inhibit the class B β-lactamases | –
CC(=O)OCC1=C(C(=O)[O-])N2C(=O)C(CS)C2[S+]([O-])C1.[Na+] (stereo not drawn) [Compound 17, Sodium salt of 7β-(mercaptomethyl)cephalosporanate-1β-oxide] | possess the ability to inhibit the class B β-lactamases | –
C[C@]1(Cn2ccnn2)[C@H](C(=O)O)N2C(=O)C[C@H]2S1(=O)=O [tazobactam, reference compound] | does not possess such ability | –
CC(=O)OCC1=C(C(=O)[O-])N2C(=O)C(CS)C2S(=O)(=O)C1.[Na+] (stereo not drawn) [Compound 22, Sodium salt of 7α-(mercaptomethyl)cephalosporanate-1,1-dioxide] | possess the ability to inhibit the class B β-lactamases | superior to tazobactam
CC(=O)OCC1=C(C(=O)[O-])N2C(=O)C(CS)C2[S+]([O-])C1.[Na+] (stereo not drawn) [Compound 19, Sodium salt of 7α-(mercaptomethyl)cephalosporanate-1β-oxide] | possess the ability to inhibit the class B β-lactamases | –
CC(=O)OCC1=C(C(=O)[O-])N2C(=O)C(CS)C2SC1.[Na+] (stereo not drawn) [Compound 12, Sodium salt of 7β-(mercaptomethyl)cephalosporanate] | possess the ability to inhibit the class B β-lactamases | –
